# Test results as given in patent publication US4693992A, “Bacitracin-metal-polyether antibiotic complexes” (International Minerals & Chemical Corp., priority 1985, dated 1987).
# Legend:
# Eimeria tenella [1] = assay: Anticoccidial activity in chickens inoculated with Eimeria tenella oocysts (Example 11); format: in vivo; conditions: for Incidence of Bloody Droppings / Morbidity: 4th-6th day; for Morbidity: birds affected/birds in group; for Mortality: 4th-7th day, birds dead/birds in group; for F/G Day 0-3 / F/G Day 4-10: feed per gain
# Method: (§1) This example describes experimental testing of complexes of this invention for anticoccidial activity. Anticoccidial activities of test compounds were determined by administering the compounds (in feed) to chickens inoculated with active oocysts of Eimeria tenella. The test compounds, which are listed in Table 1 below, included four bacitracin-metal-polyether antibiotic complexes prepared according to the procedures described above. In addition, sodium lysocellin, regular bacitracin, sodium monensin, sodium lasolocid, and unmedicated inoculated and noninoculated controls were included for comparative purposes.
# (§2) The test animals were Hubbard White Mountain male chicken (broiler strain) that were 5 days old at the beginning of the test. Each experimental compound was administered in a chick starter diet (Table 2) at a level of 80 g/ton and 120 g/ton. At 7 days of age, chicks were individually weighed, banded, and started on their respective treatments. Each treatment was replicated three times with five birds per replicate for a total of 15 birds per group. The test period was 10 days.
# Seventy-two hours after the initiation of medication, birds were reweighed and orally inoculated with approximately 100,000 Eimeria tenella oocysts suspended in a 1 cc dose of saline. The following criteria were then evaluated over the next seven days: […]
# a. morbidity (4th-6th day) b. mortality (4th-7th day) c. incidence of bloody droppings (4th-6th day)
# Eimeria tenella [2] = assay: Anticoccidial activity in chickens inoculated with Eimeria tenella (Example 12); format: in vivo, chicken; conditions: for Cecal Bleeding / Gain/Bird Days 0-3 / Gain/Bird Days 4-10: regrouped part of Table 2; for anticoccidial activity (in words): 120 grams per ton
# Method: as §1, §2
# Seventy-two hours after the initiation of medication, birds were reweighed and orally inoculated with approximately 100,000 Eimeria tenella oocysts suspended in a 1 cc dose of saline. The following criteria were then evaluated over the next seven days:
# A satisfactory challenge was obtained with Eimeria tenella.
# [3] = Weight gain and feed utilization in chicks, 12 days (Example 14); format: in vivo, chicken; conditions: .0066% in feed; for Gain/Feed Data / Gains/gram Data: 12 days; for Gain/Feed Index Relative to #1 / Gains Index Relative to #1: #1 = unmedicated; for Gain/Feed Index Relative to #2 / Gains Index Relative to #2: #2 = zinc bacitracin
# Method: (§3) This example describes experimetnal testing of complexes of the present invention as feed additives for improving weight gain or feed utilization efficiency in birds. Test animals were male meat-type chickens (Hubbard strain). Fluorescent room lights were on a 16 hours light/8 hours dark schedule. The chicks were allotted to the pens on the basis of weight classes, and chicks in the even numbered pens were wing banded. Group weights were obtained at the start and individual weights at the termination of the experiment. Chicks weighing between 55 and 65 grams were selected for the test. The test compounds were blended with a basal feed ration (shown in Table 2) at the indicated concentration. Birds fed […] and feed supplemented with zinc bacitracin (Baciferm® 50, International Minerals and Chemical Corp.) were used as controls. The test was continued for 11 days, after which individual weights, pen weight and feed consumption were recorded and analyzed.
# All of the bacitracin-metal-polyether antibiotic complexes tested produced statistically significant increases in gains compared to the unmedicated basal ration.
# The test involving test compounds 1 and 3-14 consisted of 5 replicates of 7 chicks and those involving test compound 2 consisted of 6 replicates of 7 chicks. The tests were continued for 12 days, after which individual weight gains and feed conusumption were recorded and analyzed.
# [4] = Weight gain and feed utilization efficiency in chicks, 11 days (Example 13); format: in vivo, chicken; parameters: key to Average Weight: average weight in grams; conditions: .00275% in rye basal diet; for Average Gain / Gain/Feed Ratio: 11 days; for Average Weight / Gain/Feed: Table 4; for Average Gain Index / Gain/Feed Ratio Index: unmedicated = 100
# Method: as §3
substance,measurement,setting,value
Bacitracin-Copper-Lysocellin Complex [Example 2],Incidence of Bloody Droppings,Eimeria tenella [1]; 80 g/ton in feed,Severe
same,Morbidity,Eimeria tenella [1]; 80 g/ton in feed,6/15
same,Mortality,Eimeria tenella [1]; 80 g/ton in feed,1/15
same,"Gain, Grams Day 0-3",Eimeria tenella [1]; 80 g/ton in feed,59.0 Grams
same,"Gain, Grams Day 4-10",Eimeria tenella [1]; 80 g/ton in feed,200.2 Grams
same,F/G Day 0-3,Eimeria tenella [1]; 80 g/ton in feed,1.67
same,F/G Day 4-10,Eimeria tenella [1]; 80 g/ton in feed,1.74
same,Morbidity,Eimeria tenella [1]; 120 g/ton in feed,6/15
same,Mortality,Eimeria tenella [1]; 120 g/ton in feed,0/15
same,"Gain, Grams Day 0-3",Eimeria tenella [1]; 120 g/ton in feed,64.3 Grams
same,"Gain, Grams Day 4-10",Eimeria tenella [1]; 120 g/ton in feed,203.5 Grams
same,F/G Day 0-3,Eimeria tenella [1]; 120 g/ton in feed,1.69
same,F/G Day 4-10,Eimeria tenella [1]; 120 g/ton in feed,1.74
same,Cecal Bleeding,Eimeria tenella [2]; 14 g/ton Lasalocid (Approx.),Severe
same,Gain/Bird Days 0-3,Eimeria tenella [2]; 14 g/ton Lasalocid (Approx.),60.5
same,Gain/Bird Days 4-10,Eimeria tenella [2]; 14 g/ton Lasalocid (Approx.),171.5
same,Cecal Bleeding,Eimeria tenella [2]; 36 g/ton Lasalocid (Approx.),Slight-Moderate
same,Gain/Bird Days 0-3,Eimeria tenella [2]; 36 g/ton Lasalocid (Approx.),57.0
same,Gain/Bird Days 4-10,Eimeria tenella [2]; 36 g/ton Lasalocid (Approx.),198.7
same,Incidence of Bloody Droppings,Eimeria tenella [2]; 80 g/ton in feed,Severe
same,Morbidity,Eimeria tenella [2]; 80 g/ton in feed,5/15
same,Mortality,Eimeria tenella [2]; 80 g/ton in feed,0/15
same,F/G Day 0-3,Eimeria tenella [2]; 80 g/ton in feed,1.68
same,Gain/Bird Grams Day 0-3,Eimeria tenella [2]; 80 g/ton in feed,60.5 Grams
same,F/G Day 4-10,Eimeria tenella [2]; 80 g/ton in feed,1.92
same,Gain/Bird Grams Day 4-10,Eimeria tenella [2]; 80 g/ton in feed,171.5 Grams
same,Cecal bleeding associated with E. tenella infections,Eimeria tenella [2]; 80 gram per ton,severe
same,weight gains compared with those of test compound 5 and lasalocid,Eimeria tenella [2]; 80 gram per ton (lasalocid 24 gram per ton),appreciably higher
same,Morbidity,Eimeria tenella [2]; 120 g/ton in feed,4/15
same,Mortality,Eimeria tenella [2]; 120 g/ton in feed,0/15
same,F/G Day 0-3,Eimeria tenella [2]; 120 g/ton in feed,1.75
same,Gain/Bird Grams Day 0-3,Eimeria tenella [2]; 120 g/ton in feed,57.0 Grams
same,F/G Day 4-10,Eimeria tenella [2]; 120 g/ton in feed,1.74
same,Gain/Bird Grams Day 4-10,Eimeria tenella [2]; 120 g/ton in feed,198.7 Grams
same,anticoccidial activity (in words),Eimeria tenella [2],good anticoccidial activity
Bacitracin-Manganese-Lysocellin Complex [Example 3],anticoccidial activity (in words),"Eimeria tenella [1]; 80 and 120 g/ton, mild E. tenella challenge",excellent anticoccidial activity
same,Incidence of Bloody Droppings,Eimeria tenella [1]; 80 g/ton in feed,None
same,Morbidity,Eimeria tenella [1]; 80 g/ton in feed,1/15
same,Mortality,Eimeria tenella [1]; 80 g/ton in feed,0/15
same,"Gain, Grams Day 0-3",Eimeria tenella [1]; 80 g/ton in feed,61.7 Grams
same,"Gain, Grams Day 4-10",Eimeria tenella [1]; 80 g/ton in feed,226.6 Grams
same,F/G Day 0-3,Eimeria tenella [1]; 80 g/ton in feed,1.62
same,F/G Day 4-10,Eimeria tenella [1]; 80 g/ton in feed,1.59
same,Incidence of Bloody Droppings,Eimeria tenella [1]; 120 g/ton in feed,None
same,Morbidity,Eimeria tenella [1]; 120 g/ton in feed,1/15
same,Mortality,Eimeria tenella [1]; 120 g/ton in feed,0/15
same,"Gain, Grams Day 0-3",Eimeria tenella [1]; 120 g/ton in feed,57.7 Grams
same,"Gain, Grams Day 4-10",Eimeria tenella [1]; 120 g/ton in feed,231.8 Grams
same,F/G Day 0-3,Eimeria tenella [1]; 120 g/ton in feed,1.68
same,F/G Day 4-10,Eimeria tenella [1]; 120 g/ton in feed,1.61
same,Gain/Feed Data,[3],.588
same,Gains/gram Data,[3],202.0 gram
same,Gain/Feed Index Relative to #1,[3],104.4
same,Gains Index Relative to #1,[3],109.1
same,Gain/Feed Index Relative to #2,[3],98.6
same,Gains Index Relative to #2,[3],96.4
same,Average Gain,[4],215 g
same,Gain/Feed Ratio,[4],64.6
same,Average Weight,[4],274.8
same,Gain/Feed,[4],64.6
same,Average Gain Index,[4],104.5
same,Gain/Feed Ratio Index,[4],101.3
same,Cecal Bleeding,Eimeria tenella [2]; 14 g/ton Lasalocid (Approx.),Moderate
same,Gain/Bird Days 0-3,Eimeria tenella [2]; 14 g/ton Lasalocid (Approx.),61.3
same,Gain/Bird Days 4-10,Eimeria tenella [2]; 14 g/ton Lasalocid (Approx.),154.0
same,Cecal Bleeding,Eimeria tenella [2]; 36 g/ton Lasalocid (Approx.),Slight-Moderate
same,Gain/Bird Days 0-3,Eimeria tenella [2]; 36 g/ton Lasalocid (Approx.),61.3
same,Gain/Bird Days 4-10,Eimeria tenella [2]; 36 g/ton Lasalocid (Approx.),202.4
same,Incidence of Bloody Droppings,Eimeria tenella [2]; 80 g/ton in feed,Moderate
same,Morbidity,Eimeria tenella [2]; 80 g/ton in feed,10/15
same,Mortality,Eimeria tenella [2]; 80 g/ton in feed,0/15
same,F/G Day 0-3,Eimeria tenella [2]; 80 g/ton in feed,1.81
same,Gain/Bird Grams Day 0-3,Eimeria tenella [2]; 80 g/ton in feed,61.3 Grams
same,F/G Day 4-10,Eimeria tenella [2]; 80 g/ton in feed,2.01
same,Gain/Bird Grams Day 4-10,Eimeria tenella [2]; 80 g/ton in feed,154.0 Grams
same,Morbidity,Eimeria tenella [2]; 120 g/ton in feed,2/15
same,Mortality,Eimeria tenella [2]; 120 g/ton in feed,0/15
same,F/G Day 0-3,Eimeria tenella [2]; 120 g/ton in feed,1.58
same,Gain/Bird Grams Day 0-3,Eimeria tenella [2]; 120 g/ton in feed,61.3 Grams
same,F/G Day 4-10,Eimeria tenella [2]; 120 g/ton in feed,1.74
same,Gain/Bird Grams Day 4-10,Eimeria tenella [2]; 120 g/ton in feed,202.4 Grams
same,anticoccidial activity (in words),Eimeria tenella [2],good anticoccidial activity
Bacitracin-Zn-Lasalocid Complex,Gain/Feed Data,[3],.609
same,Gains/gram Data,[3],213.5 gram
same,Gain/Feed Index Relative to #1,[3],108.2
same,Gains Index Relative to #1,[3],115.3
same,Gain/Feed Index Relative to #2,[3],102.2
same,Gains Index Relative to #2,[3],101.9
same,Average Gain,[4],225 g
same,Gain/Feed Ratio,[4],65.6
same,Average Weight,[4],285.6
same,Gain/Feed,[4],65.6
same,Average Gain Index,[4],109.4
same,Gain/Feed Ratio Index,[4],103.0
